{"source": "Sander's compilation of Henry's law constants (doi:10.1016/s0378-3812(99)00193-4)", "data": [{"assay": "Henry solubility constant Hcp at 298.15 K (mol/(m3 Pa))", "settings": "reference: Ryu and Park (1999)", "values": [{"smiles": "CCCCCCCCC", "note": "[nonane]", "Henry solubility constant Hcp": "2.2e-06"}, {"smiles": "ClCCl", "note": "[dichloromethane]", "Henry solubility constant Hcp": 0.0041}, {"smiles": "CCCCc1ccccc1", "note": "[butylbenzene]", "Henry solubility constant Hcp": 0.00074}, {"smiles": "Cc1ccc(C)cc1", "note": "[1,4-dimethylbenzene]", "Henry solubility constant Hcp": 0.0014}, {"smiles": "CCCCCc1ccccc1", "note": "[pentylbenzene]", "Henry solubility constant Hcp": 0.00061}, {"smiles": "CCCCCCC", "note": "[heptane]", "Henry solubility constant Hcp": "4.5e-06"}, {"smiles": "CCc1ccccc1", "note": "[ethylbenzene]", "Henry solubility constant Hcp": 0.0011}, {"smiles": "ClC=C(Cl)Cl", "note": "[trichloroethene]", "Henry solubility constant Hcp": 0.00095}, {"smiles": "c1ccccc1", "note": "[benzene]", "Henry solubility constant Hcp": 0.0017}, {"smiles": "ClC(Cl)(Cl)Cl", "note": "[tetrachloromethane]", "Henry solubility constant Hcp": 0.00038}, {"smiles": "CCCCCC", "note": "[hexane]", "Henry solubility constant Hcp": "6.1e-06"}, {"smiles": "ClC(Cl)=C(Cl)Cl", "note": "[tetrachloroethene]", "Henry solubility constant Hcp": 0.00053}, {"smiles": "Clc1ccccc1", "note": "[chlorobenzene]", "Henry solubility constant Hcp": 0.0019}, {"smiles": "CCCCCCCC", "note": "[octane]", "Henry solubility constant Hcp": "3.4e-06"}, {"smiles": "Cc1ccccc1", "note": "[methylbenzene]", "Henry solubility constant Hcp": 0.0015}]}]}
